Measured values as given in PMC9012943, “Oral remdesivir derivative VV116 is a potent inhibitor of respiratory syncytial virus with efficacy in mouse model” (Signal Transduction and Targeted Therapy, 2022).
Where two headings read alike, the source gives them in different places.

Key:
[1] = Tissue distribution study in Balb/c mice; assay type: in vivo; details: VV116 oral 100 mg/kg
Description: A total of thirty Balb/c mice were divided into five groups (3 animals/sex/group). VV116 was intragastrically administered at 100 mg/kg dissolved in 40%PEG400+10% Kolliphor® HS15+50%. At 0 (not administered), 0.25, 2, 6, and 24 h post-dosing, the five groups of mice were anesthetized, respectively. Blood samples were collected, and tissues including liver and lung were harvested. Tissue samples were individually homogenized, and blood samples were processed as above. The concentrations of X1 in liver, lung and blood were analyzed by LC-MS/MS.

[2] = tested on: RSV A2; experiment: Inhibition of RSV A2 replication in A549 cells (qRT-PCR); assay type: cell-based, respiratory syncytial virus
Description: A549, HEp-2 or NHBE cells were plated into 48 well-plate and incubated overnight. Upon reaching 80% cell confluence, cells were infected RSV A2 (at an MOI of 2 in A549, MOI of 0.5 in HEp-2, and MOI of 1 in NHBE cells) for 2 h after cells were incubated for 1 h with varying concentrations of drugs. Then, the virus-drug mixture was removed, and cells were cultured with drug-containing medium. At 48 h post inoculation, total RNAs were extracted from cells and then in reverse transcription using PrimeScript RT reagent Kit with gDNA Eraser (TaKaRa). For determining the viral copies, absolute quantitative RT-PCR was performed with TB Green® Premix Ex Taq^TM II (TaKaRa). RSV A2 F fragment was quantified with primers 5’-[…]-3’; and 5’-[…]-3’

[3] = Toxicokinetics in SD rats; assay type: in vivo
Description: Groups of male and female SD rats (4 animals/sex/group) received repeated oral doses of VV116 (dissolved in 40%PEG400+10% Kolliphor® HS15+50% ultrapure water) at 100 (low), 200 (mild) and 500 mg/kg/d (high) for 14 days. At day 1 and day 14, blood samples were collected from the jugular vein into EDTA-K2 tubes at various time points post-dose. Plasma samples were obtained following general procedures and the concentrations of analytes in the samples were analyzed by LC-MS/MS.

[4] = Cellular toxicity in A549 cells (WST-8 cell viability); assay type: cell-based; details: human; A549 cells, 48 h; read-out: CC50
Description: Cell viability was performed in 96-well plate with triplicate for each concentration. All drugs were diluted 2 times with 9 gradients starting at 500 micromores in maintenance medium (DMEM containing 2% FBS). After 48 h incubation, the supernatant was removed, and 10 μL WST-8 (2-(2-methoxy-4-(phenyl)-3-(4-(phenyl) to 5 (2, 4-sulpho benzene) -2 h-tetrazolium monosodium salt) in maintenance medium was added in medium. Plates were measured at 450 nm wavelength using spectrophotometer (BioTek) after 2 h incubation, and cell viability was calculated.

[5] = Pharmacokinetic study in Balb/c mice; assay type: in vivo; details: for Cmax: X1 in blood
Description: A total of nine Balb/c mice (N = 3 for each group, male) were divided into three groups, and fasted for 12 h before dosing. The three groups received oral dose of VV116 dissolved in 40%PEG400+10% Kolliphor® HS15+50% ultrapure water at 25 mg/kg, 50 mg/kg and 100 mg/kg, respectively. At 5 min, 0.25, 0.5, 1.0, 2.0, 4.0, 6.0, 8.0, and 24 h post-dosing, blood samples were collected from the jugular vein or the submandibular vein into EDTA-K2 tubes, and immediately mixed with acetonitrile (20 µL blood + 80 μL acetonitrile). The concentrations of analytes in the blood were analyzed by LC-MS/MS.

## [2H]c1cc([C@]2(C#N)O[C@H](CO)[C@@H](O)[C@H]2O)n2ncnc(N)c12 [X1]
[1]
  concentration of X1 in the lung relative to that in the liver: about half
[2]
  SI: > 314
[2]; human respiratory syncytial virus, RSV A2
  EC90: 3.56 ± 0.63 µM
[2]; human respiratory syncytial virus, RSV A2 MOI 2, 48 h
  EC50: 1.59 ± 0.49 µM
[3]; both sexes, rat, plasma, po, X1, SD rats, VV116 p.o. 200 mg/kg, Total, Day 1
  AUC0-t: 85200 ng·h/mL
[3]; in vivo
  AUC0–t of X1 at rat NOAEL (200 mg/kg) relative to that at 50 mg/kg in mice: ~ 3.5 folds
[4]
  CC50 at 48 h: > 500 µM
[5]; Balb/c mice, following oral administration of VV116
  Time for blood concentration of X1 to reach Cmax: ≤ 0.5 h
[5]; male, mouse, whole blood, po, Balb/c mice, VV116 p.o. 25 mg/kg, read-out: Cmax
  Cmax: 5360 ng/mL
[5]; male, mouse, whole blood, X1, Balb/c mice, VV116 oral 25 to 100 mg/kg, read-out: elimination half-life
  half-life: 2.3 to 4.25 h
[5]; male, mouse, whole blood, Balb/c mice, VV116 oral 25 mg/kg, read-out: mean Cmax
  Cmax: 18.4 µM
